Source: article PMC6757289, “Design and Characterization of SGK3-PROTAC1, an Isoform Specific SGK3 Kinase PROTAC Degrader” (ACS Chemical Biology, 2019)

Molecular target: T1, SGK3 (Homo sapiens, UniProt Q96BR1)
T1 sequence (Q96BR1 1-496): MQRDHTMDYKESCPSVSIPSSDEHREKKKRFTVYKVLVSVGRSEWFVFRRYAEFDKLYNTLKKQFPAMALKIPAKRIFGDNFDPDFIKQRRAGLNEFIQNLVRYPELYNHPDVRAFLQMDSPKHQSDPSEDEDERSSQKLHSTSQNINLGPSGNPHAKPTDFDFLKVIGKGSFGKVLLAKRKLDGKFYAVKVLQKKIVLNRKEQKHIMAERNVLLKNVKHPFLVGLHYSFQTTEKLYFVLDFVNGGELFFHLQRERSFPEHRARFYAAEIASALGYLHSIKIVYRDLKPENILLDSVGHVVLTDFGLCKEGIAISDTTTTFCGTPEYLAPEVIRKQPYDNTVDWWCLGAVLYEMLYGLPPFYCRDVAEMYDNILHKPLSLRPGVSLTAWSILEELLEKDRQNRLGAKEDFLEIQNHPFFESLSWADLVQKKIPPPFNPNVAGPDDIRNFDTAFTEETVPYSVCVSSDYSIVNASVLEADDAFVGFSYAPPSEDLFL
Experiment: SGK3 degradation in HEK293 cells, immunoblot
Assay type: cell-based
Design: reduced endogenous SGK isoform or S6K1 expression when administered to HEK293 cells for 48 h; endogenous in cells; host or cells: HEK293; Dmax: dose or concentration left out as unconfirmed
Conditions: for remaining activity at 0.001 µM / remaining activity at 0.01 µM / remaining activity at 0.1 µM / remaining activity at 1 µM / remaining activity at 10 µM: Figure 2; for degradation of SGK3: HEK293, 8 h, cisSGK3-PROTAC1 up to 3 μM, SGK3-PROTAC1 0.1 μM
Procedure: Figure 1 Design and cellular activity of first generation SGK3 PROTACs. (A) Structure of compound 14H, previously published by Sanofi as an inhibitor of SGK3. (B) Starting material for SGK PROTACs. […] (C) Structures of first generation SGK PROTACs. SGK and E3 ligase targeting motifs were joined by a 3xPEG linker to produce the PROTACs. (D) HEK293 cells were treated for 48 h with increasing concentrations of each PROTAC compound from 0.1 nM to 10 μM. Cell lysates were subjected to immunoblot analysis with the indicated antibodies, and SGK3 protein levels were quantified in Image Studio Lite software (Licor).
Figure 2 Design and cellular evaluation of second and third generation SGK PROTACs. (A) Chemical structure of compounds DAT5–12, expanding upon DAT1. (B) Chemical structure of cisSGK3-PROTAC1. (C) HEK293 cells were treated for 48 h with increasing concentrations of each PROTAC compound from 1 nM to 10 μM. Cell lysates were subjected to immunoblot analysis with the indicated antibodies, and SGK3 protein levels quantified in Image Studio Lite software. (D) HEK293 cells were treated for 48 h with increasing concentrations of each PROTAC compound from 1 nM to 10 μM. Cell lysates were subjected to immunoblot analysis with the indicated antibodies, and SGK3 and S6K1 protein levels were quantified in Image Studio Lite software. TEXT PRINTED IN THE PICTURE: (C) DAT1: % SGK3: 100 (48h Treatment (μM): 0); % SGK3: 94 (48h Treatment (μM): 0.001); % SGK3: 82 (48h Treatment (μM): 0.01); % SGK3: 70 (48h Treatment (μM): 0.1); % SGK3: 52 (48h Treatment (μM): 1); % SGK3: 31 (48h Treatment (μM): 10) | (C) DAT5: % SGK3: 100 (48h Treatment (μM): 0); % SGK3: 104 (48h Treatment (μM): 0.001); % SGK3: 82 (48h Treatment (μM): 0.01); % SGK3: 92 (48h Treatment (μM): 0.1); % SGK3: 73 (48h Treatment (μM): 1); % SGK3: 36 (48h Treatment (μM): 10) | (C) DAT6: % SGK3: 100 (48h Treatment (μM): 0); % SGK3: 105 (48h Treatment (μM): 0.001); % SGK3: 90 (48h Treatment (μM): 0.01); % SGK3: 71 (48h Treatment (μM): 0.1); % SGK3: 44 (48h Treatment (μM): 1); % SGK3: 20 (48h Treatment (μM): 10) | (C) DAT7: % SGK3: 100 (48h Treatment (μM): 0); % SGK3: 77 (48h Treatment (μM): 0.001); % SGK3: 80 (48h Treatment (μM): 0.01); % SGK3: 95 (48h Treatment (μM): 0.1); % SGK3: 37 (48h Treatment (μM): 1); % SGK3: 29 (48h Treatment (μM): 10) | (D) DAT8: % SGK3: 100 (48h Treatment (μM): 0); % SGK3: 97 (48h Treatment (μM): 0.001); % SGK3: 107 (48h Treatment (μM): 0.01); % SGK3: 34 (48h Treatment (μM): 0.1); % SGK3: 24 (48h Treatment (μM): 1); % SGK3: 19 (48h Treatment (μM): 10) | (D) DAT9: % SGK3: 100 (48h Treatment (μM): 0); % SGK3: 105 (48h Treatment (μM): 0.001); % SGK3: 71 (48h Treatment (μM): 0.01); % SGK3: 40 (48h Treatment (μM): 0.1); % SGK3: 11 (48h Treatment (μM): 1); % SGK3: 12 (48h Treatment (μM): 10) | (D) DAT10: % SGK3: 100 (48h Treatment (μM): 0); % SGK3: 100 (48h Treatment (μM): 0.001); % SGK3: 76 (48h Treatment (μM): 0.01); % SGK3: 54 (48h Treatment (μM): 0.1); % SGK3: 11 (48h Treatment (μM): 1); % SGK3: 9 (48h Treatment (μM): 10) | (D) DAT11: % SGK3: 100 (48h Treatment (μM): 0); % SGK3: 96 (48h Treatment (μM): 0.001); % SGK3: 97 (48h Treatment (μM): 0.01); % SGK3: 41 (48h Treatment (μM): 0.1); % SGK3: 32 (48h Treatment (μM): 1); % SGK3: 29 (48h Treatment (μM): 10) | (D) DAT12: % SGK3: 100 (48h Treatment (μM): 0); % SGK3: 106 (48h Treatment (μM): 0.001); % SGK3: 84 (48h Treatment (μM): 0.01); % SGK3: 79 (48h Treatment (μM): 0.1); % SGK3: 32 (48h Treatment (μM): 1); % SGK3: 29 (48h Treatment (μM): 10) DOUBTS OF THE COPYIST ABOUT THIS PICTURE: All % SGK3 values are quantification numbers printed under immunoblot lanes; each was assigned to a concentration by lane position / DAT9 and DAT10, % SGK3: the first numbers are printed run together ('100105', '100100') and were split as 100 | 105 and 100 | 100
Figure 3 Characterization of cellular activities of SGK3-PROTAC1 and cisSGK3-PROTAC1. […]

[1] = HEK293, washout after 24 h of treatment

Compound	SGK3 degradation efficiency (HEK293, 48 h)	remaining activity at 0.001 µM (HEK293, 48 h)	remaining activity at 0.01 µM (HEK293, 48 h)	remaining activity at 0.1 µM (HEK293, 48 h, 0.1 μM)	remaining activity at 1 µM (HEK293, 48 h, 1 μM)	remaining activity at 10 µM (HEK293, 48 h, 10 μM)	time of maximal reduction of SGK3 expression (HEK293, 1 μM)	concentration that maximally reduced SGK3 expression (HEK293, 8 h time point, dose response)	reduction of SGK3 expression (HEK293, 48 h, 1 μM)	reduction of SGK3 expression (HEK293, 48 h, 10 μM)	degradation of endogenous SGK3 (HEK293, 0.3 μM, within 2 h)	degradation of SGK3	reduction of SGK3 levels (HEK293, 48 h, 0.1 μM)	time to increased SGK3 expression after washout [1]	time to return of SGK3 protein to normal levels after washout [1]	Dmax (HEK293, within 8 h, read-out: maximal degradation of SGK3)	DC50 (SGK3 degradation)
COc1ccc(Cl)c(S(=O)(=O)Nc2ccc(-c3nc(OC[C@H]4CN(CCCCCCOCCOCCOCCOCC(=O)N[C@H](C(=O)N5C[C@H](O)C[C@H]5C(=O)NCc5ccc(-c6scnc6C)cc5)C(C)(C)C)CCO4)c4c(C)n[nH]c4n3)cc2)c1 [DAT11]	+++ (“+++” = >50% degradation at 0.1 μM)	96%	97%	41%	32%	29%											
Cc1ccc(F)c(S(=O)(=O)Nc2ccc(-c3nc(OC[C@H]4CN(CCCCCCOCCOCCOCC(=O)N[C@H](C(=O)N5C[C@H](O)C[C@H]5C(=O)NCc5ccc(-c6scnc6C)cc5)C(C)(C)C)CCO4)c4cn[nH]c4n3)cc2)c1 [SGK3-PROTAC1]	++++ (“++++” = >60% degradation at 0.1 μM)	97%	107%	34%	24%	19%					50%	markedly reduced SGK3 expression	65%	1 h	10 h	80%	< 100 nM
Cc1ccc(F)c(S(=O)(=O)Nc2ccc(-c3nc(OC[C@H]4CN(CCOCCOCC(=O)N[C@H](C(=O)N5C[C@H](O)C[C@H]5C(=O)NCc5ccc(-c6scnc6C)cc5)C(C)(C)C)CCO4)c4cn[nH]c4n3)cc2)c1 [DAT5]	+ (“+” = >50% degradation at 10 μM)	104%	82%	92%	73%	36%											
Cc1ccc(F)c(S(=O)(=O)Nc2ccc(-c3nc(OC[C@H]4CN(CCCCCCOCCCCCCOCC(=O)N[C@H](C(=O)N5C[C@H](O)C[C@H]5C(=O)NCc5ccc(-c6scnc6C)cc5)C(C)(C)C)CCO4)c4cn[nH]c4n3)cc2)c1 [DAT10]	++ (“++” = >50% degradation at 1 μM)	100%	76%	54%	11%	9%											
Cc1ccc(F)c(S(=O)(=O)Nc2ccc(-c3nc(OC[C@H]4CN(CCCCCCOCCOCCOCC(=O)N[C@H](C(=O)N5C[C@@H](O)C[C@H]5C(=O)NCc5ccc(-c6scnc6C)cc5)C(C)(C)C)CCO4)c4cn[nH]c4n3)cc2)c1 [cisSGK3-PROTAC1]												failed to induce degradation of SGK3					

Now from value to molecule, other results behind:

SGK3 degradation efficiency (HEK293, 48 h)	remaining activity at 0.001 µM (HEK293, 48 h)	remaining activity at 0.01 µM (HEK293, 48 h)	remaining activity at 0.1 µM (HEK293, 48 h, 0.1 μM)	remaining activity at 1 µM (HEK293, 48 h, 1 μM)	remaining activity at 10 µM (HEK293, 48 h, 10 μM)	time of maximal reduction of SGK3 expression (HEK293, 1 μM)	concentration that maximally reduced SGK3 expression (HEK293, 8 h time point, dose response)	reduction of SGK3 expression (HEK293, 48 h, 1 μM)	reduction of SGK3 expression (HEK293, 48 h, 10 μM)	Compound	degradation of endogenous SGK3 (HEK293, 0.3 μM, within 2 h)	degradation of SGK3	reduction of SGK3 levels (HEK293, 48 h, 0.1 μM)	time to increased SGK3 expression after washout [1]	time to return of SGK3 protein to normal levels after washout [1]	Dmax (HEK293, within 8 h, read-out: maximal degradation of SGK3)	DC50 (SGK3 degradation)
++ (“++” = >50% degradation at 1 μM)	77%	80%	95%	37%	29%					Cc1ccc(F)c(S(=O)(=O)Nc2ccc(-c3nc(OC[C@H]4CN(CCOCCOCCOCCOCCOCC(=O)N[C@H](C(=O)N5C[C@H](O)C[C@H]5C(=O)NCc5ccc(-c6scnc6C)cc5)C(C)(C)C)CCO4)c4cn[nH]c4n3)cc2)c1 [DAT7]							
++ (“++” = >50% degradation at 1 μM)	105%	90%	71%	44%	20%					Cc1ccc(F)c(S(=O)(=O)Nc2ccc(-c3nc(OC[C@H]4CN(CCOCCOCCOCCOCC(=O)N[C@H](C(=O)N5C[C@H](O)C[C@H]5C(=O)NCc5ccc(-c6scnc6C)cc5)C(C)(C)C)CCO4)c4cn[nH]c4n3)cc2)c1 [DAT6]							
+ (“+” = >50% degradation at 10 μM)	94%	82%	70%	52%	31%	≤ 16 h	2 µM	60%	75%	Cc1ccc(F)c(S(=O)(=O)Nc2ccc(-c3nc(OC[C@H]4CN(CCOCCOCCOCC(=O)N[C@H](C(=O)N5C[C@H](O)C[C@H]5C(=O)NCc5ccc(-c6scnc6C)cc5)C(C)(C)C)CCO4)c4cn[nH]c4n3)cc2)c1 [DAT1]							
